The source of these data is ChEMBL document CHEMBL5728008, “Compound used as Bruton's tyrosine kinase inhibitor and preparation method and application thereof” (2020).

pIC50: −log10 of the molar value.

This assay has as its target Tyrosine-protein kinase BTK (Homo sapiens, UniProt Q06187). Nature of the assay: In Vitro Assay for the Inhibition of BTK Kinase Activity: 1: Test Principle:Mobility-Shift Assay, which is microfluidic chip technology, applies the basic concept of capillary electrophoresis to microfluidic environments. The substrate used for the experiment is a polypeptide with a fluorescent label. Under the action of enzyme in the reaction system, the substrate is transformed into a product, and the charge the substrate carries also changes accordingly. The use of the charge difference between the substrate and the product involved in Mobility-Shift Assay achieves the separating of the two, and they are tested respectively.

Tyrosine-protein kinase BTK, sequence (Q06187 whole entry): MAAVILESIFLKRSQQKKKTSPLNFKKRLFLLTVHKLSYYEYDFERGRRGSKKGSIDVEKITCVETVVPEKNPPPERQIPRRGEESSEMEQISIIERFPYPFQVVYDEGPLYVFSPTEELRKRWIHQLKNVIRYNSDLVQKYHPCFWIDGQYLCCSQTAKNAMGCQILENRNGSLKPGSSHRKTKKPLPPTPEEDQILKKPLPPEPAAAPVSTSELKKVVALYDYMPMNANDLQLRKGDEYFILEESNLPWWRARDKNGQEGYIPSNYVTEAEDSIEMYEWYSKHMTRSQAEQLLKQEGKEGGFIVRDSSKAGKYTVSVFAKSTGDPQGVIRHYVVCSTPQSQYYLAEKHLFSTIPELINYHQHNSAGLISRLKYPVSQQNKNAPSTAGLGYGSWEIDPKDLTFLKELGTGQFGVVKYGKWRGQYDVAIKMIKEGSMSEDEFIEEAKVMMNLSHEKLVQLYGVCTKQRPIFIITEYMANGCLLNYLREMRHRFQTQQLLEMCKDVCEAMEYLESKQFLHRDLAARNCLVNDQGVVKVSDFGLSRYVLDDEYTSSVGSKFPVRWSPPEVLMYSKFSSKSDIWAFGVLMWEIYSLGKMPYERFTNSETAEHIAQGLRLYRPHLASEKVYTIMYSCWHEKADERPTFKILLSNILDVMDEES

As to `C=CC(=O)N1CC2CCCC2C1c1nc(-c2ccc(C(=O)Nc3ccccn3)cc2)c2c(N)nccn12` (stereo unspecified), the pIC50 (usually the negative decadic logarithm of the IC50, by convention in mol/L) was 8.33.
